Experimental data from the supplement of paper PMC6965134.
± gives the standard deviation of the averaged measurements.

Test: TIMS collisional cross section (CCS, N2) of the lipid ion; higher = larger ion cross section
Settings: ionization mode: negative, one isomer drawn
Method: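 Lipid extracts of human plasma (NIST SRM 1950), mouse liver or HeLa cells were separated by nanoflow C18 LC (30 min gradient) and analysed by TIMS-PASEF on a timsTOF Pro. Ion mobility was calibrated with the Agilent tuning mix (negative mode ions) and converted to collisional cross sections (Mason–Schamp, N2).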
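Further: lipids from MTBE extraction, five replicate injections per sample, 100 ms TIMS ramp spanning 0.6–1.95 Vs/cm², lipid identity assigned from PASEF MS/MS spectra.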

## C=CC(=O)O[C@H](COC(=O)CCCCCCCCCCCCCCCCC)COP(=O)([O-])OCC[N+](C)(C)C [PC 18:0@_3:1]
Sample type: Mouse Liver, ion (formula + adduct): [C29H56NO8P+OAcO] 1-
  TIMS collisional cross section: 258.4 Å²

## CCCCCC/C=C\CCCCCCCC(=O)O[C@H](CO/C=C\CCCCCCCCCCCCCC)COP(=O)([O-])OCC[N+](C)(C)C [PC P- 16:0@_16:1]
Sample type: Mouse Liver, ion (formula + adduct): [C40H78NO7P+OAcO] 1-
  TIMS collisional cross section: 283.6 Å²

## CC/C=C\C/C=C\C/C=C\C/C=C\C/C=C\CCCC(=O)O[C@H](COC(=O)CCCCCCC/C=C\C/C=C\CCCCC)COP(=O)([O-])OCC[N+](C)(C)C [PC 18:2_20:5]
Sample type: Human plasma, ion (formula + adduct): [C46H78NO8P+HCOO] 1-
  TIMS collisional cross section: 294.9 Å²

## CCCCCCCCCCCCCCCC(=O)OC[C@@H](O)COP(=O)(O)OC[C@@H](O)CO [LPG 16:0_0:0]
Sample type: Human plasma, ion (formula + adduct): [C22H45O9P-H] 1-
  TIMS collisional cross section: 216.9 Å²

## CCCCCCCCCCCCCCCCOC[C@H](COP(=O)([O-])OCC[N+](C)(C)C)OC(=O)CCCCCCCCCCCCC [PC O- 16:0@_14:0]
Sample type: Human plasma, ion (formula + adduct): [C38H78NO7P+HCOO] 1-
  TIMS collisional cross section: 282.2 Å²

## CCCCC/C=C\C/C=C\C/C=C\C/C=C\CCCC(=O)O[C@H](COC(=O)CCCCCCCCCCCCC)COP(=O)([O-])OCC[N+](C)(C)C [PC 14:0_20:4@]
Sample type: Mouse Liver, ion (formula + adduct): [C42H76NO8P+AcO] 1-
  TIMS collisional cross section: 288.1 Å²

## CCCCC/C=C\C/C=C\C/C=C\C/C=C\CCCC(=O)O[C@H](CO/C=C\CCCCCCCCCCCCCC)COP(=O)(O)OCCN [PE P- 16:0_20:4]
Sample type: Human plasma, ion (formula + adduct): [C41H74NO7P-H] 1-
  TIMS collisional cross section: 270.1 Å²
Sample type: Mouse Liver, ion (formula + adduct): [C41H74NO7P-H] 1-
  TIMS collisional cross section: 270.1 Å²

## CCCCC/C=C\C/C=C\C/C=C\C/C=C\C/C=C\CCC(=O)O[C@H](COC(=O)CCCCCCCCCCCCCCC)COP(=O)([O-])OCC[N+](C)(C)C [PC 16:0@_22:5]
Sample type: Human plasma, ion (formula + adduct): [C46H82NO8P-CH3] 1-
  TIMS collisional cross section: 282.7 ± 0.42 Å²
Sample type: Mouse Liver, ion (formula + adduct): [C46H82NO8P-CH3] 1-
  TIMS collisional cross section: 282.4 Å²

## CC/C=C\C/C=C\C/C=C\CCCCCCCC(=O)O[C@H](COC(=O)CCCCCCC/C=C\CCCCCCCC)COP(=O)([O-])OCC[N+](C)(C)C [PC 18:1@_18:3]
Sample type: Mouse Liver, ion (formula + adduct): [C44H80NO8P+HCOO] 1-
  TIMS collisional cross section: 292.7 Å²

## CC/C=C\C/C=C\C/C=C\C/C=C\CCCCC(=O)OC[C@@H](O)COP(=O)(O)OC1[C@H](O)[C@H](O)C(O)[C@H](O)[C@H]1O (some centres not stated) [LPI 18:4_0:0]
Sample type: Mouse Liver, ion (formula + adduct): [C27H45O12P+AcO] 1-
  TIMS collisional cross section: 244.9 Å²

## CCCCCCCC/C=C\CCCCCCCC(=O)O[C@H](COCCCCCCCCCCCCCC)COP(=O)([O-])OCC[N+](C)(C)C [PC O- 14:0@_18:1]
Sample type: Human plasma, ion (formula + adduct): [C40H80NO7P+HCOO] 1-
  TIMS collisional cross section: 286.1 Å²

## CCCCCCCCCCCCCCCCCC(=O)OC[C@H](COP(=O)(O)OC[C@H](N)C(=O)O)OC(=O)CCCCCCCCCCCCCC [PS 18:0_15:0@]
Sample type: Human plasma, ion (formula + adduct): [C39H76NO10P+OAcO] 1-
  TIMS collisional cross section: 293.3 Å²

## CC/C=C\C/C=C\C/C=C\CCCCCCCC(=O)O[C@H](COC(=O)CCCCCCCCCCCCCCC)COP(=O)(O)OCCN [PE 16:0_18:3]
Sample type: Mouse Liver, ion (formula + adduct): [C39H72NO8P-H] 1-
  TIMS collisional cross section: 264.9 Å²

## CCCCCCCCCCCCCCCC(=O)OC[C@H](COP(=O)([O-])OCC[N+](C)(C)C)OC(=O)CCCCCCCC [PC 16:0_9:0@]
Sample type: Human plasma, ion (formula + adduct): [C33H66NO8P-H] 1-
  TIMS collisional cross section: 260.3 Å²

## CCCCCCCCCCCCCCCC(=O)OC[C@@H](O)COP(=O)(O)OC1C(O)C(O)C(O)[C@@H](O)C1O (some centres not stated) [LPI 16:0]
Sample type: Mouse Liver, ion (formula + adduct): [C25H49O12P-H] 1-
  TIMS collisional cross section: 232.6 Å²

## CCCCCCCC/C=C\CCCCCCCC(=O)OC[C@@H](O)COP(=O)(O)OC1[C@H](O)[C@H](O)C(O)[C@H](O)[C@H]1O (some centres not stated) [LPI 18:1_0:0]
Sample type: Human plasma, ion (formula + adduct): [C27H51O12P-H] 1-
  TIMS collisional cross section: 238.3 Å²

## CCCCC/C=C\C/C=C\C/C=C\C/C=C\CCCC(=O)OC[C@H](COP(=O)(O)OC1[C@H](O)[C@H](O)C(O)[C@H](O)[C@H]1O)OC(=O)CCCCCCCCCCCCCCC (some centres not stated) [PI 20:4_16:0]
Sample type: Human plasma, ion (formula + adduct): [C45H79O13P-H] 1-
  TIMS collisional cross section: 291.9 Å²
Sample type: Mouse Liver, ion (formula + adduct): [C45H79O13P-H] 1-
  TIMS collisional cross section: 291.3 Å²

## CC/C=C\C/C=C\C/C=C\C/C=C\C/C=C\CCCC(=O)O[C@H](COCCCCCCCCCCCCCCCC)COP(=O)(O)OCCN [PE O- 16:0@_20:5]
Sample type: Human plasma, ion (formula + adduct): [C41H74NO7P+AcO] 1-
  TIMS collisional cross section: 280.1 Å²

## CCCCCC/C=C\CCCCCCCCCC(=O)O[C@H](COC(=O)CCCCCCCCCCCCC)COP(=O)([O-])OCC[N+](C)(C)C [PC 14:0_18:1]
Sample type: Mouse Liver, ion (formula + adduct): [C40H78NO8P+HCOO] 1-
  TIMS collisional cross section: 286 Å²

## CC/C=C\C/C=C\C/C=C\C/C=C\C/C=C\C/C=C\CCC(=O)O[C@H](COC(=O)CCCCCCC/C=C\CCCCCCC)COP(=O)(O)OCCN [PE 17:1_22:6]
Sample type: Mouse Liver, ion (formula + adduct): [C44H74NO8P-H] 1-
  TIMS collisional cross section: 275.5 Å²

## CCCCC/C=C\C/C=C\C/C=C\C/C=C\CCCC(=O)O[C@H](COC(=O)CCCCCCCCCCCCCCC)COP(=O)(O)OCCN [PE 16:0_20:4]
Sample type: Mouse Liver, ion (formula + adduct): [C41H74NO8P-H] 1-
  TIMS collisional cross section: 270.7 ± 0.46 Å²

## CCCCC/C=C\C/C=C\CCCCCCCC(=O)OC(COC(=O)CCCCCCCCCCCCCCC)COP(=O)(O)OCCN (configuration not stated) [PE 16:0_18:2]
Sample type: Human plasma, ion (formula + adduct): [C39H74NO8P-H] 1-
  TIMS collisional cross section: 266.6 Å²
Sample type: Mouse Liver, ion (formula + adduct): [C39H74NO8P-H] 1-
  TIMS collisional cross section: 266.6 Å²

## CCCCC/C=C\C[C@H](O)/C=C/C=C\C/C=C\CCCC(=O)O[C@H](COC(=O)CCCCCCCCCCCCCCCCC)COP(=O)([O-])OCC[N+](C)(C)C [Oxidized PC 18:0_20:4]
Sample type: Human plasma, ion (formula + adduct): [C46H84NO9P+HCOO] 1-
  TIMS collisional cross section: 302.75 ± 1.5 Å²
Sample type: Mouse Liver, ion (formula + adduct): [C46H84NO9P+HCOO] 1-
  TIMS collisional cross section: 302.3 Å²

## CCCCCCCCCCCCCC(=O)OC[C@H](COP(=O)([O-])OCC[N+](C)(C)C)OC(=O)CCCCCCCCCCCCC [PC 14:0_14:0]
Sample type: Human plasma, ion (formula + adduct): [C36H72NO8P+HCOO] 1-
  TIMS collisional cross section: 277.1 Å²

## CCCCC/C=C\C/C=C\C/C=C\C/C=C\CCCC(=O)O[C@H](COC(=O)CCCCCCCCCCCCCCCC)COP(=O)([O-])OCC[N+](C)(C)C [PC 17:0@_20:4]
Sample type: Mouse Liver, ion (formula + adduct): [C45H82NO8P+HCOO] 1-
  TIMS collisional cross section: 296.7 Å²

## CC/C=C\C/C=C\C/C=C\C/C=C\C/C=C\CCCC(=O)O[C@H](COC(=O)CCCCCCCCCCCCCCCCC)COP(=O)([O-])OCC[N+](C)(C)C [PC 18:0@_20:5]
Sample type: Human plasma, ion (formula + adduct): [C46H82NO8P+HCOO] 1-
  TIMS collisional cross section: 301.2 Å²

## CCCCC/C=C\C/C=C\C/C=C\C/C=C\CCCC(=O)OC[C@H](COP(=O)(O)OC[C@H](N)C(=O)O)OC(=O)CCCCCCC/C=C\CCCCCCCC [PS 20:4_18:1]
Sample type: Mouse Liver, ion (formula + adduct): [C44H76NO10P-H] 1-
  TIMS collisional cross section: 284.6 Å²

## CCCCC/C=C\C/C=C\C/C=C\C/C=C\CCCC(=O)O[C@H](COCCCCCCCCCCCCCCC)COP(=O)([O-])OCC[N+](C)(C)C [PC O- 15:0@_20:4]
Sample type: Human plasma, ion (formula + adduct): [C43H80NO7P-H] 1-
  TIMS collisional cross section: 276.3 Å²

## CC/C=C\C/C=C\C/C=C\C/C=C\C/C=C\CCCC(=O)OC[C@@H](O)COP(=O)(O)OCCN [LPE 20:5_0:0]
Sample type: Human plasma, ion (formula + adduct): [C25H42NO7P-H] 1-
  TIMS collisional cross section: 216.7 Å²
Sample type: Mouse Liver, ion (formula + adduct): [C25H42NO7P-H] 1-
  TIMS collisional cross section: 216.7 Å²

## CC/C=C\C/C=C\C/C=C\C/C=C\C/C=C\C/C=C\CCC(=O)O[C@H](COCCCCCCCCCCCCCCCCCC)COP(=O)([O-])OCC[N+](C)(C)C [PC O- 18:0@_22:6]
Sample type: Human plasma, ion (formula + adduct): [C48H86NO7P+HCOO] 1-
  TIMS collisional cross section: 303.2 Å²

## CCCCC/C=C\C/C=C\C/C=C\C/C=C\CCCCCC(=O)O[C@H](CO/C=C\CCCCCCCCCCCCCC)COP(=O)(O)OCCN [PE P- 16:0@_22:4]
Sample type: Human plasma, ion (formula + adduct): [C43H78NO7P-H] 1-
  TIMS collisional cross section: 276.3 Å²
